Article PMC9762789, “Chromone-based monoamine oxidase B inhibitor with potential iron-chelating activity for the treatment of Alzheimer’s disease” (Journal of Enzyme Inhibition and Medicinal Chemistry, 2022)
Where two headings read alike, the source gives them in different places.

What was measured:
MAO-B = molecular target: T1, MAO-B (Homo sapiens, UniProt P27338); assay: hMAO-B inhibition assay; format: biochemical; details: for inhibition at 0.1 µM: read-out: Inhibitory rate (%, 100 nM)
T1 construct: purchased Sigma-Aldrich
T1 sequence (P27338 1-520): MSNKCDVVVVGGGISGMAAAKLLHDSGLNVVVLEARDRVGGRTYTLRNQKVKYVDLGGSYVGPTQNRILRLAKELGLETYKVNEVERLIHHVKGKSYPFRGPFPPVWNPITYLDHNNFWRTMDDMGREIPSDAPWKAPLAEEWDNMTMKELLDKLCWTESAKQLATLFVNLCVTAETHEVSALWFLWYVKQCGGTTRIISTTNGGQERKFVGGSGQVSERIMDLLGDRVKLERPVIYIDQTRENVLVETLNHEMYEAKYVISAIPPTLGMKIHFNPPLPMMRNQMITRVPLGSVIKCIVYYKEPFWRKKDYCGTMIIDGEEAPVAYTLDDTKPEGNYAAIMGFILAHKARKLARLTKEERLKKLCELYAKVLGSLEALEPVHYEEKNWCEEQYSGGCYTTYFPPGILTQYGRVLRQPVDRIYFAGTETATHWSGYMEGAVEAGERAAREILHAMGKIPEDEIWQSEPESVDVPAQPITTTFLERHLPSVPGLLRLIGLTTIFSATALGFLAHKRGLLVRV
Experimental: (§1) The reagents and enzymes (Human MAO-B and Human MAO-A) applied in this experiment were purchased from Sigma-Aldrich. According to the manuals, all components (substrate solution and enzyme solution) are diluted and placed aside for use. The detailed process has been mentioned in our early work[34].

Human MAO-A = molecular target: T2, Human MAO-A (Homo sapiens, UniProt P21397); assay: hMAO-A inhibition assay; format: biochemical
T2 construct: purchased Sigma-Aldrich
T2 sequence (P21397 1-527): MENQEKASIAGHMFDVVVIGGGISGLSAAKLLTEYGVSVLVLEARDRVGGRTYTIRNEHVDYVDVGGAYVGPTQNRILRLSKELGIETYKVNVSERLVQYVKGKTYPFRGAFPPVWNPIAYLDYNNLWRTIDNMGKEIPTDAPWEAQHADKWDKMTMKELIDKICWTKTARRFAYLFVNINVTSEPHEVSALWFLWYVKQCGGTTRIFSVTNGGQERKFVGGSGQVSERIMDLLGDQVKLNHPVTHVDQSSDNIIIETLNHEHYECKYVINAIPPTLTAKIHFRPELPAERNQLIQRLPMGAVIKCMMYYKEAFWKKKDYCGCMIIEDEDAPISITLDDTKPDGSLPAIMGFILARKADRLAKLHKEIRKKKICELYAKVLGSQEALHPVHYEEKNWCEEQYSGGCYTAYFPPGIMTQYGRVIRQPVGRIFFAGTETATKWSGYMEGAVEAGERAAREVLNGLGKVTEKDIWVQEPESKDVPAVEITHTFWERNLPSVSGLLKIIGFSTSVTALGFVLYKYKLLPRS
Experimental: Further, the inhibitory activity of compounds against hMAO-A isoform was tested and calculated as a selectivity index [Selectivity index (SI): IC50 (hMAO-A)/IC50 (hMAO-B)].
as §1

[1] = iron (III) affinity constants and pFe3+ by spectrophotometric titration; format: physicochemical; details: for Log β1 / Log β2 / Log β3: DMSO: KCl (0.1 M) = 1:1.5 (v/v); for pFe^3+: calculated from Log β values obtained in DMSO: KCl (0.1 M) = 1:1.5 (v/v)
PAMPA-BBB assay = format: in vitro ADME; details: PAMPA-BBB, mean ± SEM of eight independent experiments
From the text: Good blood–brain barrier (BBB) permeability is the key to exerting drug efficacy in the treatment of central nervous system diseases. To evaluate whether the target compound could penetrate BBB, a parallel artificial membrane permeability assay (PAMPA) was used to predict[32]^,[33]. […] Therefore, due to its potential ability to cross the BBB, compound 17d was selected for subsequent assay.
PAMPA was used to predict the BBB permeability of the screened compound. The detailed process has been mentioned in our early work[32]^,[33].

[2] = pKa determination by automated spectrophotometric titration; format: physicochemical; details: 0.1 M KCl solution
[3] = system: scopolamine-induced cognitive impairment mice model; assay: Morris water maze test, scopolamine-induced memory impairment; format: in vivo, ICR mice; set-up: Distance to first entry: unit not given here; details: 15 mg/kg, scopolamine 15 mg/kg, ICR mice, mean ± SEM, n = 15; for Latency to first entry: in s (unit assumed)
From the text: To further explore the in vivo anti-AD effect of compound 17d on the scopolamine-induced cognitive impairment mice model, the Morris Water Maze experiment was selected; data are shown in Figure 7 and Table 5.
Figure 7.
Adult female ICR mice (weight 20–25 g) were obtained from the Zhejiang Academy of Medical Sciences (Hangzhou, China). Scopolamine hydrobromide and Pargyline were purchased from Aladdin Reagents. Memantine was purchased from Energy Chemical. All experiments were approved by the Laboratory Animals Ethical Committee of the Zhejiang University of Technology (No. 20211210103). In this test, mice were prepared as clarified and clear injections, consisting of 20% (2-Hydroxypropyl)-β-cyclodextrin, 10% DMSO, and PBS. […] Mice were administered at a frequency of once a day over 15 d with a fixed dosing schedule. The body weight of mice was measured during the experiment.
After eliminating environmental stress, the behavioural test was performed over the next five days. The mice were trained to find the platform (10 cm diameter) in the circular light-avoidance pool (120 cm diameter and 60 cm height) filled with water (40 cm, depth), which was described in detail in our previous study. All mice received at least one training session daily in four quadrants for four consecutive days before the probe trial of finding the platform within 120 s. Recordings were made with SMART version 3.0 (Panlab, Spain) and processed by Graphpad Prism version 6 software (Graphpad Software Inc., La Jolla, CA, USA).

Compound	IC50 (MAO-B) [nM]	SI: hMAO-B selectivity index = IC50 (hMAO-A)/IC50 (hMAO-B) (MAO-B)	inhibition at 0.1 µM (MAO-B; hMAO-B, 100 nM) [%]	Log β1 [1]	Log β2 [1]	Log β3 [1]	pFe^3+ [1]	melting point [°C]	pKa ([2]; read-out: pKa1)	pKa ([2]; read-out: pKa2)	Entries to target [3]	Latency to first entry [3]	further results
Cc1c(O)c(=O)ccn1CCNCc1coc2ccccc2c1=O [Compound 17a, 3-Hydroxy-2-methyl-1–(2-(((4-oxo-4H-chromen-3-yl)methyl)amino)ethyl)pyridin-4(1H)-one]	67.3 ± 1.9	30.7	53.1 ± 1.6	13.46	25.19	35.28	18.62	248 to 250	2.81	9.8	–	–	IC50 (Human MAO-A): 2060 ± 35.4 nM; Pe ± SEM (PAMPA-BBB assay): 1.22 ± 0.22 *10^−6 cm/s; Papp (PAMPA-BBB assay; read-out: Pe ± SEM): 1.22 ± 0.22 ×10⁻⁶ cm/s
CC12CC3CC(C)(C1)CC(N)(C3)C2 [Memantine]	–	–	–	–	–	–	–	–	–	–	4.0 ± 0.3	13 ± 1	Entries to target ([3]; listed as memantine): 4.0 ± 0.3; Latency to first entry ([3]; listed as memantine): 13 ± 1
C#CCN(C)Cc1ccccc1 [Pargyline]	–	–	–	–	–	–	–	–	–	–	5.3 ± 0.9	11 ± 1	inhibition at 0.1 µM (MAO-B): 48.9 ± 1.7%; Distance to first entry [3]: 2.6 ± 0.3; Distance to first entry ([3]; listed as pargyline): 2.6 ± 0.3; Entries to target ([3]; listed as pargyline): 5.3 ± 0.9; Latency to first entry ([3]; listed as pargyline): 11 ± 1
Cc1c(O)c(=O)ccn1CCNCc1coc2cc(OCc3cccc(Cl)c3)ccc2c1=O [Compound 17k, 1–(2-(((7-((3-Chlorobenzyl)oxy)-4-oxo-4H-chromen-3-yl)methyl)amino)ethyl)-3-hydroxy-2-methylpyridin-4(1H)-one]	114 ± 3.8	>88	43.1 ± 2	12.99	24.76	33.88	18.31	226 to 228	2.53	9.43	–	–	inhibition at 10 µM (Human MAO-A; read-out: hMAO-A inhibitory rate at 10 μM, 10 μM (highest concentration tested)): < 20%
